Entries after “also recorded” stand apart in the source; their conditions may differ. Some results are limits rather than exact numbers.

The test system of data set [1] is chorioallantoic membranes at 4.5-day old chick embryo. Description: Chorioallantoic membrane (CAM) assay, inhibition of angiogenesis in vivo. The conditions noted are these: positive eggs/used eggs × 100%. The procedure: Chorioallantoic membrane (CAM) assay was used to measure whether the two isocoumarin derivatives are effective to inhibit angiogenesis in vivo. Fertilized chick eggs were kept in a humidified incubator at 37° C. After 3 days incubation, egg albumin were removed with hypodermic needle to allow CAM and yolk sac to drop away from the shell membrane. On day 3.5, the shell was punched out and removed to be a circular window and the shell membrane was removed. For testing of angiogenesis inhibition, a pieces of thermanox coverslip was coated with various concentration of the isocoumarin derivatives. The thermanox coverslip was placed on the chorioallantoic membranes at 4.5-day old chick embryo. After 2 days incubation at 37° C., 10% fat emulsion was injected into chorioallantois and observed blood vessel formation during an embryogenesis or development procedure. As a positive control, retinoic acid was used and non-treated coverslip for negative control.
Chorioallantoic membrane (CAM) assay was used to measure whether the two compounds obtained in Example 1 are effective to inhibit angiogenesis in vivo. Fertilized chick eggs were kept in a humidified incubator at 37° C. After 3 days incubation, about 2 ml of egg albumin were removed with hypodermic needle to allow CAM and yolk sac to drop away from the shell membrane. On day 3.5, the shell was punched out and removed to be a circular window and the shell membrane was removed. For testing of angiogenesis inhibition, a pieces of thermanox coverslip was coated with the isocoumarin derivatives dissolved in ethanol at concentration of 1, 5 and 10 μg/coverslip and the ethanol was evaporated. The thermanox coverslip were placed on the chorioallantoic membranes at 4.5-day old chick embryo. After 2 days incubation at 37° C., 1-2 ml of 10% fat emulsion was injected into chorioallantois and observed blood vessel formation during an embryogenesis or development procedure under a microscope. As a positive control, 1 μg/egg of retinoic acid was used and a negative control was non-treated. coverslip.

The subject of another data set is HUVEC. Description: Cytotoxicity to HUVEC. The format is cell-based, human. Particulars: same concentrations as in the angiogenesis inhibition.
The subject of data set [2] is human umbilical vein endothelial cells (HUVEC). Description: Inhibition of tube formation in human endothelial cells on Matrigel. The data set is classed as cell-based. The conditions noted are these: for inhibition at 0.5 µg/mL: 0.5 μg/ml; for inhibition at 1 µg/mL: 1.0 μg/ml. The source says: In order to determine the inhibitory effect of the isocoumarin derivatives against the angiogenesis, in vitro, endothelial cells, HUVEC (human umbilical vein endothelial cell) are selected. Under a specific culture condition, endothelial cells are migrated and differentiated into capillary tubes. Similar to the angiogenesis in vivo, the tube formation assay may be a good model to determine the influence of the isocoumarin derivatives on angiogenesis.
Various concentrations of the two isocoumarin derivatives are added to endothelial cells to monitor under a microscope whether the isocoumarin derivatives inhibited the differentiation of endothelial cells into capillary tubes. From this experiment, the two isocoumarin derivatives are found to inhibit the angiogenesis in concentration-dependent manners. […] However, the differentiation of HUVEC into a capillary tube is inhibited by 6,8-dihydroxy-4-acetyl-isocoumarin down to the concentration of as low as 0.2 μg/ml.
To determine the inhibitory effect of the two compounds obtained in Example 1 on the angiogenesis in vitro, human umbilical vein endothelial cells (HUVEC) were used as a model on the basis that they are migrated and differentiated into capillary tubes on Matrigel HUVEC was cultured in a gelatin-coated culture flask with an M199 medium supplemented with 20% FBS, 2 ng/ml bFGF and 100 μg/ml heparin at 37° C. incubator in a humidified atmosphere containing 5% CO2. The cultured HUVEC were treated with trypsin/EDTA to make a single cell suspension, the cells were plated on Matrigel coated 96-well plates with an M199 medium supplemented with 20% FBS, 2 ng/ml bFGF and 100 μg/ml heparin) at a density of 2×10^4 cells/well. The two compounds obtained in Example 1 were independently added at various concentrations into the wells and the plate was incubated for 18-48 hours in a CO2 incubator. The formation of capillary-like tube was monitored under a microscope during the incubation. The cells in the well containing vehicle (DMSO) became to be robuster and longer hollow tube networks as incubation time went on, but the tubes in the wells containing samples were broken and shortened. The inhibitory activity against tube formation was compared with control by measuring the length of the capillary tubes formed.

Data set [3] can be described thus: Acute toxicity test with rat. The conditions noted are these: in vivo, 300 mg/kg; for Death and clinical symptoms / Toxic signs in weight change, serologic test, serobiochemical test, corpse examination: po; for LD50: rat, SD-rats, single oral administration, read-out: lethal dose (LD50). The procedure: Specific pathogen-free (SPF) SD-rats (six weeks old) were used for the test of acute toxicity. Suspensions of the compounds of formulae 2 and 3 in 0.5% methyl cellulose were orally administered once at a dose of 300 mg/kg/10 ml to the rats. After the administration, the animals were observed as to their death, clinical symptoms and weight change, and serological and serobiochemically tested. An autopsy was made over the rats with the naked eye to observe whether their abdominal and thoracic organs were damaged. […] The compounds tested caused no toxic changes rats over the rats to the dose of 300 mg/lkg and thus, found to be safe compounds with a lethal dose (LD50) of at least 300 mg/kg when being administered via an oral route.

The mark [4] stands for this setting: Homo sapiens, length of capillary tubes vs control, read-out: Inhibitory activity (%) against tube formation.

As for `CC(O)c1coc(=O)c2c(O)cc(O)cc12` (centres unmarked) [6,8-dihydroxy-4-(1-hydroxyethyl)-isocoumarin], the “Inhibition rate (%)” value in data set [1] (1 μg/egg) is given as 27.3%. Further, the “Inhibition rate (%)” value in data set [1] (5 μg/egg) is recorded as 66.7%. For the same compound, the “Inhibition rate (%)” value in data set [1] (10 μg/egg) is 83.3%. Further, in data set [1] (10 μg/egg, listed as 6,8-dihydroxy-4-(1-hydroxyetyl)-isocoumarin), the “Inhibition rate (%)” value is listed as 78.6%. Further, in the data set with HUVEC, the “Cytotoxicity to HUVEC” value is given as “did not show cytotoxicity”. Further, in data set [2], the “Lowest concentration still inhibiting differentiation of HUVEC into capillary tubes” value is 4 µg/mL. Besides, in data set [2] (setting [4]), the inhibition at 0.5 µg/mL amounted to 0% and the inhibition at 1 µg/mL is 0%. Further, the inhibition at 4 µg/mL in data set [2] (Homo sapiens, 4 μg/ml, length of capillary tubes vs control, read-out: Inhibitory activity (%) against tube formation) was 60%. Also, the inhibition at 10 µg/mL in data set [2] (Homo sapiens, 10 μg/ml, length of capillary tubes vs control, read-out: Inhibitory activity (%) against tube formation) was determined as 100%. In addition, in data set [3], the “Death and clinical symptoms” value was “Neither sudden death nor noticeable clinical symptoms were detected”; the “Toxic signs in weight change, serologic test, serobiochemical test, corpse examination” value is “no toxic signs were observed”; the LD50 was ≥ 300 mg/kg.
Consider `CC(=O)c1coc(=O)c2c(O)cc(O)cc12` [6,8-dihydroxy-4-acetyl-isocoumarin], for which the “Inhibition rate (%)” value in data set [1] (1 μg/egg) came to 50.0%. Further, the “Inhibition rate (%)” value in data set [1] (5 μg/egg) is 83.3%. Besides, the “Inhibition rate (%)” value in data set [1] (10 μg/egg) is listed as 93.3%. For the same compound, the “Cytotoxicity to HUVEC” value with HUVEC is on record as “no cytotoxicity; also recorded: did not show cytotoxicity”. In addition, the “Lowest concentration still inhibiting differentiation of HUVEC into capillary tubes” value in data set [2] was found to be 0.2 µg/mL. Moreover, the inhibition at 0.05 µg/mL in data set [2] (Homo sapiens, 0.05 μg/ml, length of capillary tubes vs control, read-out: Inhibitory activity (%) against tube formation) is 0%. Further, the inhibition at 0.2 µg/mL in data set [2] (Homo sapiens, 0.2 μg/ml, length of capillary tubes vs control, read-out: Inhibitory activity (%) against tube formation) was 50%. In data set [2] (setting [4]), the inhibition at 0.5 µg/mL came out at 85% and the inhibition at 1 µg/mL stood at 100%. In data set [3], the “Death and clinical symptoms” value was “Neither sudden death nor noticeable clinical symptoms were detected”; the “Toxic signs in weight change, serologic test, serobiochemical test, corpse examination” value is on record as “no toxic signs were observed”; the LD50 is ≥ 300 mg/kg.
Take `CC1=C(/C=C/C(C)=C/C=C/C(C)=C/C(=O)O)C(C)(C)CCC1` [retinoic acid, reference compound]: in data set [1] (1 μg/egg), the “Inhibition rate (%)” value came out at 79.2%.
